# Data taken from patent US4778811A, “Pharmaceutical compositions of 2-methyl-thiazolo[4,5-c]quinoline” (EGIS Gyogyszergyar, priority 1985, dated 1988).
# How the values were obtained:
# [1] = Shuttle-box, acquisition of two-way conditioned avoidance reflex; format: in vivo
# Procedure: The acquisition of a two-way conditioned avoidance reflex (CAR) was analyzed in the shuttle-box during 5 consecutive days. […] It consists of six boxes, each is separated inside by a barrier with a small gate in the middle. […] They were given 100 trials per day. One trial consisted of 15 s intertrial interval, followed by 15 s CS. The last 5 s of CS overlapped the first s of US. At each learning session the number of CAR and intersignal reactions (IR) was automatically counted and evaluated by multiway analysis of variance (ANOVA).
# [2] = Screening test: one session conditioning / unconditioned reflex, glass cylinder jump; format: in vivo, rats
# Procedure: Was elaborated for studying learning and retention of rats during one session conditioning.
# During conditioning rats are trained to jump onto the top of glass cylinder by the electric foot-shock (110 V). The escape reaction (unconditioned reflex, UR) is paired with a bell as conditioned stimulus. The criterion of learning is that conditioned reflex (CR) should be elicited 10 times with 10 s intervals without reinforcement. Retention of CR is taken positive when 24 h following the experiment CR can be elicited. In these experiments animals are distributed into 4 categories on the basis of their learning ability.
# benzodiazepine receptor = assay: Benzodiazepine (BZD) receptor binding, 3H-diazepam displacement, crude cortical membrane preparation; settings: for displacement of 3H-diazepam specific binding: crude cortical membrane, 1 hr, 0° C., TRIS-citrate buffer, pH 6.8
# Procedure: For the studies of benzodiazepine /BZD) receptor binding crude cortical membrane preparation was used. […] ^3 H-diazepam was incubated with the membrane for 1 hr at 0° C. in TRIS-citrate buffer, pH 6.8. Specific binding was determined in the presence of 10 μM diazepam. In displacement studies chlordiazepoxide was used as control drug.
# [3] = Effect on basal metabolism (O2 consumption); format: in vivo, rats; settings: urethane 0.6 g/kg i.p., 30° C.
# Procedure: The O2 consumption of rats was measured by the method of Issekutz and Issekutz (1952) at constant temperature (30° C.).
# O2 consumption of the animals was expressed in ml/h and calculated for body surface, and given finally in ml/h/dm^2. Following injection of urethane and the basal O2 consumption was measured during 30 minutes. This was followed by the injection of the test substance and O2 consumption was registered immediately afterwards. The difference between the highest O2 consumption and the basal value was expressed in percent.
# O2 consumption of the animals was calculated according to the following equation: [formula] V=2000 cm^3 P=pressure fall (mmHg)
# T=period of measurement (h)
# O2 consumption was calculated for body surface and expressed as ml/dm^2 /h. Body surface was calculated on the basis of the "Diack" formula: […]
# [4] = Central nervous depressant effect
# malaria = settings: cited from earlier work
structure (smiles),measurement,setting,value
"CNC1=Nc2ccc(Cl)cc2C(c2ccccc2)=[N+]([O-])C1 [Chlordiazepoxide, chlordiazepoxide, reference compound]","acquisition of conditioned reflex, number of positive responses (F)","[1]; 5 mg/kg s.c., day 1",23.1
same,number of intersignal reactions (IR),"[1]; 5 mg/kg s.c., day 1",108
same,number of negative responses (-f),"[1]; 5 mg/kg s.c., day 1",11.8
same,"acquisition of conditioned reflex, number of positive responses (F)","[1]; 5 mg/kg s.c., day 2",38.7
same,number of intersignal reactions (IR),"[1]; 5 mg/kg s.c., day 2",14.0
same,number of negative responses (-f),"[1]; 5 mg/kg s.c., day 2",9.1
same,"acquisition of conditioned reflex, number of positive responses (F)","[1]; 5 mg/kg s.c., day 3",35.6
same,number of intersignal reactions (IR),"[1]; 5 mg/kg s.c., day 3",8.9
same,number of negative responses (-f),"[1]; 5 mg/kg s.c., day 3",10.2
same,"acquisition of conditioned reflex, number of positive responses (F)","[1]; 5 mg/kg s.c., day 4",41.1
same,number of intersignal reactions (IR),"[1]; 5 mg/kg s.c., day 4",6.7
same,number of negative responses (-f),"[1]; 5 mg/kg s.c., day 4",14.9
same,"acquisition of conditioned reflex, number of positive responses (F)","[1]; 5 mg/kg s.c., day 5",50.8
same,number of intersignal reactions (IR),"[1]; 5 mg/kg s.c., day 5",4.2
same,number of negative responses (-f),"[1]; 5 mg/kg s.c., day 5",13.0
same,number of negative responses (f) (in words),[1]; 10 mg/kg,increased
same,"acquisition of conditioned reflex, number of positive responses (F)","[1]; 10 mg/kg s.c., day 1",19.9
same,number of intersignal reactions (IR),"[1]; 10 mg/kg s.c., day 1",10.8
same,number of negative responses (-f),"[1]; 10 mg/kg s.c., day 1",32.7
same,"acquisition of conditioned reflex, number of positive responses (F)","[1]; 10 mg/kg s.c., day 2",37.9
same,number of intersignal reactions (IR),"[1]; 10 mg/kg s.c., day 2",14.7
same,number of negative responses (-f),"[1]; 10 mg/kg s.c., day 2",22.8
same,"acquisition of conditioned reflex, number of positive responses (F)","[1]; 10 mg/kg s.c., day 3",33.7
same,number of intersignal reactions (IR),"[1]; 10 mg/kg s.c., day 3",8.1
same,number of negative responses (-f),"[1]; 10 mg/kg s.c., day 3",31.8
same,"acquisition of conditioned reflex, number of positive responses (F)","[1]; 10 mg/kg s.c., day 4",35.6
same,number of intersignal reactions (IR),"[1]; 10 mg/kg s.c., day 4",6.3
same,number of negative responses (-f),"[1]; 10 mg/kg s.c., day 4",36.5
same,"acquisition of conditioned reflex, number of positive responses (F)","[1]; 10 mg/kg s.c., day 5",41.2
same,number of intersignal reactions (IR),"[1]; 10 mg/kg s.c., day 5",6.1
same,number of negative responses (-f),"[1]; 10 mg/kg s.c., day 5",40.8
same,"acquisition of conditioned reflex, number of positive responses (F)","[1]; 25 mg/kg s.c., day 1",9.7
same,number of negative responses (-f),"[1]; 25 mg/kg s.c., day 1",74.0
same,"acquisition of conditioned reflex, number of positive responses (F)","[1]; 25 mg/kg s.c., day 2",12.2
same,number of negative responses (-f),"[1]; 25 mg/kg s.c., day 2",67.5
same,"acquisition of conditioned reflex, number of positive responses (F)","[1]; 25 mg/kg s.c., day 3",17.9
same,number of negative responses (-f),"[1]; 25 mg/kg s.c., day 3",67.0
same,"acquisition of conditioned reflex, number of positive responses (F)","[1]; 25 mg/kg s.c., day 4",20.0
same,number of negative responses (-f),"[1]; 25 mg/kg s.c., day 4",65.6
same,"acquisition of conditioned reflex, number of positive responses (F)","[1]; 25 mg/kg s.c., day 5",21.4
same,number of negative responses (-f),"[1]; 25 mg/kg s.c., day 5",59.8
same,acquisition of conditioned reflex (in words),[1]; 10 and 5 mg/kg,unchanged
same,intersignal reactions (IR) (in words),[1]; 10 and 5 mg/kg,unchanged
same,inhibition of the development of conditioned reflex,[2]; 0.025 mg/kg,does not influence the development of CR
same,displacement of 3H-diazepam specific binding,benzodiazepine receptor,displaced ^3 H-diazepam on the receptor in concentration dependent manner
CC(N)Cc1ccccc1 (centres unmarked) [amphetamine],rate of metabolism / O2 consumption,[3],dose-dependently increased
"Cc1nc2cnc3ccccc3c2s1 [Formula I, 2-methyl-thiazolo[4,5-c]quinoline]",central nervous depressant effect,[4],significantly stronger central depressant effect than benzodiazepines
same,escape of animals in the one session unconditioned reflex test,[2]; even in high doses,enables the escape of animals
same,inhibition of non-specific activation mechanisms,"[2]; rat, in vivo",does not inhibit non-specific activation mechanisms
same,binding by benzodiazepine receptors,benzodiazepine receptor,not bound by benzodiazepine receptors
same,displacement of 3H-diazepam specific binding,benzodiazepine receptor,even in high concentration did not alter the specific binding of ^3 H-diazepam
same,spasmolytic effect,Spasmolytic effect,void of any spasmolytic effect
same,effect against malaria,malaria,completely ineffective against malaria
